Assay results: patent US6077680A (The University of Florida, dated 2000)

Tested on: rat brain membrane K channels (primarily Kv1.2)
Type: binding

Compound | Equipotent Molar Ratio (Analog IC50 /ShK IC50) | Free Energy Differ. of Binding ΔF | IC50 Ratio | ΔF | Difference of Free Energy of Binding | increase in relative free energy of binding | binding affinity for rat brain K channels relative to wild-type ShK toxin, in words | IC50 (read-out: IC50 Rat Brain 125I-CTX) [µM]
RSCIDSTIPKSRCTAAQKHSMKYRASFCRKTCGTC [A15 + A25] | 2.1 | 0.43 | 2.1 | 0.43 | – | – | – | –
CC[C@H](C)[C@@H]1NC(=O)[C@@H](NC(=O)[C@H](CO)NC(=O)[C@@H](N)CCCNC(=N)N)CSSC[C@@H](C(=O)O)NC(=O)[C@H]([C@@H](C)O)NC(=O)CNC(=O)[C@@H]2CSSC[C@@H]3NC(=O)[C@H](CCC(N)=O)NC(=O)[C@H](Cc4ccccc4)NC(=O)[C@H](C)NC(=O)[C@H]([C@@H](C)O)NC(=O)[C@H](CSSC[C@H](NC(=O)[C@H](Cc4ccccc4)NC(=O)[C@H](CO)NC(=O)[C@H](CC(C)C)NC(=O)[C@H](CCCNC(=N)N)NC(=O)[C@H](Cc4ccc(O)cc4)NC(=O)[C@H](CCCCN)NC(=O)[C@H](CCSC)NC(=O)[C@H](CO)NC(=O)[C@H](Cc4c[nH]cn4)NC(=O)[C@H](CCCCN)NC3=O)C(=O)N[C@@H](CCCNC(=N)N)C(=O)N[C@@H](CCCCN)C(=O)N[C@@H]([C@@H](C)O)C(=O)N2)NC(=O)[C@H](CCCNC(=N)N)NC(=O)[C@H](CO)NC(=O)[C@H](CCCCN)NC(=O)[C@@H]2CCCN2C(=O)[C@H](C)NC(=O)[C@H]([C@@H](C)O)NC(=O)[C@H](CC(=O)O)NC1=O [I7A] | – | – | 5.2 | – | 0.96 | approximately 1 kcal/mol | – | –
RSCIDTIPKSRCTAPQCKHSMKYRLSFCRATCGTC [K30A] | – | – | 5.3 | – | 0.98 | approximately 1 kcal/mol | – | –
RSCIDTIPKSRCTAPQCKHSMKYRLSFCRKACGTC [T31A] | – | – | 0.6 | – | -0.30 | – | increased affinities | –
CC[C@H](C)[C@@H]1NC(=O)[C@@H](NC(=O)[C@H](CO)NC(=O)[C@@H](N)CCCNC(=N)N)CSSC[C@@H](C(=O)O)NC(=O)[C@H]([C@@H](C)O)NC(=O)CNC(=O)[C@@H]2CSSC[C@@H]3NC(=O)[C@H](CCC(N)=O)NC(=O)[C@H](Cc4ccccc4)NC(=O)[C@H](C)NC(=O)[C@H]([C@@H](C)O)NC(=O)[C@H](CSSC[C@H](NC(=O)[C@H](Cc4ccccc4)NC(=O)[C@H](CO)NC(=O)[C@H](CC(C)C)NC(=O)[C@H](CCCNC(=N)N)NC(=O)[C@H](Cc4ccc(O)cc4)NC(=O)[C@H](CCCCN)NC(=O)[C@H](CCSC)NC(=O)[C@H](CO)NC(=O)[C@H](CCCCN)NC(=O)[C@H](CCCCN)NC3=O)C(=O)N[C@@H](CCCNC(=N)N)C(=O)N[C@@H](CCCCN)C(=O)N[C@@H]([C@@H](C)O)C(=O)N2)NC(=O)[C@H](CCCNC(=N)N)NC(=O)[C@H](CO)NC(=O)[C@H](CCCCN)NC(=O)[C@@H]2CCCN2C(=O)[C@H]([C@@H](C)CC)NC(=O)[C@H]([C@@H](C)O)NC(=O)[C@H](CC(=O)O)NC1=O [H19K] | 2.6 | 0.56 | 2.6 | 0.56 | – | – | slightly reduced IC50 ratio | –
CC[C@H](C)[C@@H]1NC(=O)[C@@H](NC(=O)[C@H](CO)NC(=O)[C@@H](N)CCCNC(=N)N)CSSC[C@@H](C(=O)O)NC(=O)[C@H]([C@@H](C)O)NC(=O)CNC(=O)[C@@H]2CSSC[C@@H]3NC(=O)[C@H](CCC(N)=O)NC(=O)[C@H](Cc4ccccc4)NC(=O)[C@H](C)NC(=O)[C@H]([C@@H](C)O)NC(=O)[C@H](CSSC[C@H](NC(=O)[C@H](Cc4ccccc4)NC(=O)[C@H](CO)NC(=O)[C@H](CC(C)C)NC(=O)[C@H](CCCNC(=N)N)NC(=O)[C@H](Cc4ccc(O)cc4)NC(=O)[C@H](CCC(=O)O)NC(=O)[C@H](CCSC)NC(=O)[C@H](CO)NC(=O)[C@H](Cc4c[nH]cn4)NC(=O)[C@H](CCCCN)NC3=O)C(=O)N[C@@H](CCCNC(=N)N)C(=O)N[C@@H](CCCCN)C(=O)N[C@@H]([C@@H](C)O)C(=O)N2)NC(=O)[C@H](CCCNC(=N)N)NC(=O)[C@H](CO)NC(=O)[C@H](CCCCN)NC(=O)[C@@H]2CCCN2C(=O)[C@H]([C@@H](C)CC)NC(=O)[C@H]([C@@H](C)O)NC(=O)[C@H](CC(=O)O)NC1=O [K22E] | 726.0 | 3.86 | – | – | – | – | greatly reduced affinity | –
RSCIDTIPKSRCTAPQCKHSMKYRLSFCRKTCGAC [T34A] | – | – | 1.0 | – | 0.0 | – | – | –
CC[C@H](C)[C@@H]1NC(=O)[C@@H](NC(=O)[C@H](CO)NC(=O)[C@@H](N)CCCNC(=N)N)CSSC[C@@H](C(=O)O)NC(=O)[C@H]([C@@H](C)O)NC(=O)CNC(=O)[C@@H]2CSSC[C@@H]3NC(=O)[C@H](CCC(N)=O)NC(=O)[C@H](Cc4ccccc4)NC(=O)[C@H](C)NC(=O)[C@H]([C@@H](C)O)NC(=O)[C@H](CSSC[C@H](NC(=O)[C@H](Cc4ccccc4)NC(=O)[C@H](CO)NC(=O)[C@H](CC(C)C)NC(=O)[C@H](CCCNC(=N)N)NC(=O)[C@H](CO)NC(=O)[C@H](CCCCN)NC(=O)[C@H](CCSC)NC(=O)[C@H](CO)NC(=O)[C@H](Cc4c[nH]cn4)NC(=O)[C@H](CCCCN)NC3=O)C(=O)N[C@@H](CCCNC(=N)N)C(=O)N[C@@H](CCCCN)C(=O)N[C@@H]([C@@H](C)O)C(=O)N2)NC(=O)[C@H](CCCNC(=N)N)NC(=O)[C@H](CO)NC(=O)[C@H](CCCCN)NC(=O)[C@@H]2CCCN2C(=O)[C@H]([C@@H](C)CC)NC(=O)[C@H]([C@@H](C)O)NC(=O)[C@H](CC(=O)O)NC1=O [Y23S] | – | – | – | – | – | – | – | > 5
CC[C@H](C)[C@@H]1NC(=O)[C@@H](NC(=O)[C@H](CO)NC(=O)[C@@H](N)CCCNC(=N)N)CSSC[C@@H](C(=O)O)NC(=O)[C@H]([C@@H](C)O)NC(=O)CNC(=O)[C@@H]2CSSC[C@@H]3NC(=O)[C@H](CCC(N)=O)NC(=O)[C@H](Cc4ccccc4)NC(=O)[C@H](C)NC(=O)[C@H]([C@@H](C)O)NC(=O)[C@H](CSSC[C@H](NC(=O)[C@H](Cc4ccccc4)NC(=O)[C@H](CO)NC(=O)[C@H](CC(C)C)NC(=O)[C@H](CCCNC(=N)N)NC(=O)[C@H](Cc4ccc(O)cc4)NC(=O)[C@H](CCCCN)NC(=O)[C@H](CCSC)NC(=O)[C@H](CO)NC(=O)[C@H](Cc4c[nH]cn4)NC(=O)[C@H](CCCCN)NC3=O)C(=O)N[C@@H](CCCNC(=N)N)C(=O)N[C@@H](CCCCN)C(=O)N[C@@H]([C@@H](C)O)C(=O)N2)NC(=O)[C@H](CCCNC(=N)N)NC(=O)[C@H](CO)NC(=O)[C@H](C)NC(=O)[C@@H]2CCCN2C(=O)[C@H]([C@@H](C)CC)NC(=O)[C@H]([C@@H](C)O)NC(=O)[C@H](CC(=O)O)NC1=O [K9A] | – | – | 1.3 | – | 0.15 | – | – | –
